The values below come from the supplement of paper PMC2824726.

The test system of this series is MDA-MB-231. Briefly: shRNA barcode abundance ratio t_end/t_zero (depletion over 4 weeks of proliferation) (log2 ratio); higher = less depletion (weaker anti-proliferative effect of the shRNA). Conditions: time after t zero 28 days. The procedure: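 Pooled lentiviral negative-selection screen of 305 pGIPZ shRNAs (Open Biosystems V2LHS clones; the 21-nt half-hairpin sense stem is embedded in a mir-30 scaffold) in MDA-MB-231 breast carcinoma cells, infected at MOI 0.3 with 0.5 ug/ml puromycin selection. Barcode abundance was read on barcode tiling microarrays (six 25-nt probes per 60-nt barcode) at t_zero (5 days post-infection) and t_end (33 days; 28 days of culture after t_zero). Values are median-normalised t_end/t_zero signal ratios, averaged over the tiling probes that passed a 10-fold background filter, from three biological replicates.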
Consider “TACTGTCTTTGAGAACTATAT (targeted gene: RHOC)”, for which the “shRNA barcode abundance ratio t end/t zero (log2)” value stood at 0.0813.
Turning to “CCTTGCTGTTGTGAAATCTAT (targeted gene: ANXA5)”, the “shRNA barcode abundance ratio t end/t zero (log2)” value was -0.252.
For “CAGCTTTCAGTCAGATGTATA (targeted gene: BRAF)”, the “shRNA barcode abundance ratio t end/t zero (log2)” value turned out to be 0.489.
As to “GGCTAGACTTAGATTCATTAA (targeted gene: VHL)”, the “shRNA barcode abundance ratio t end/t zero (log2)” value is 0.486.
As for “CCTGCAAACCTTATCCTCTAT (targeted gene: MAPK8IP2)”, the figure is 0.442.
Regarding “CGTGATTCTAAGAATCTCAAA (targeted gene: IL1A)”, the “shRNA barcode abundance ratio t end/t zero (log2)” value is 0.666.
As for “ACGCTGATCGAGAATGGAGAA (targeted gene: NUP62)”, the “shRNA barcode abundance ratio t end/t zero (log2)” value was -0.334.
As for “CCACAGATGTTCATAGACAAT (targeted gene: NFKB1)”, the figure is 0.547; as for “CGCCTTTCCTTAAGGAACAAA (targeted gene: NAIP)”, 0.0933; as for “GGTGTCTTTACCAAACTTATT (targeted gene: HSPA9)”, -0.751.
As for “CCAGATAATATTAAGGGAAAT (targeted gene: ABCB1)”, the figure is 0.255; as for “CCTTTCTCCAAACCCTCTTAA (targeted gene: BIRC2)”, 0.28.
As for “CCTGTTGGTGTCTTTATTATT (targeted gene: CDH1)”, the figure is 0.164; as for “ACCTGCAGAATAATAAAGTCA (targeted gene: S100A8)”, -0.295; as for “GGACATCTAGTCACTTGTAAA (targeted gene: XIAP)”, 0.00436.
Regarding “CCTGTCAATATTGATGACTTG (targeted gene: BRAF)”, the “shRNA barcode abundance ratio t end/t zero (log2)” value came to 0.319.
Consider “GCTGAGGAGGCTCAAGTTAAA (targeted gene: TGFB1)”, for which the “shRNA barcode abundance ratio t end/t zero (log2)” value was 0.277.
Turning to “GGAGTGCTCATTGTGAAGAAA (targeted gene: SORT1)”, the “shRNA barcode abundance ratio t end/t zero (log2)” value is -0.0388.
As for “CCAGCTGTTTATGCATAGATA (targeted gene: CXCR4)”, the figure is 1.87.
As for “GGACTTCAGCAGAAATCTTTA (targeted gene: CASP8)”, the figure is 0.126.
Take “GCCAATATTGTGTTTGGATAT (targeted gene: MALT1)”: the “shRNA barcode abundance ratio t end/t zero (log2)” value was determined as 0.354.
As for “CGAGTTTGTGGACTCCTTTAA (targeted gene: BAD)”, the “shRNA barcode abundance ratio t end/t zero (log2)” value was -0.185.
As for “CCAGCGATGAAGAATGTGGAA (targeted gene: CFLAR)”, the “shRNA barcode abundance ratio t end/t zero (log2)” value is -0.0627.
Take “GATGATAGTATTGAAGCAGAT (targeted gene: BNIP2)”: the “shRNA barcode abundance ratio t end/t zero (log2)” value came to 0.366.
As for “GCTCTTCATCAGGAGAAATAA (targeted gene: OPA1)”, the “shRNA barcode abundance ratio t end/t zero (log2)” value came to 0.0963.
As for “GCTCTGTACTTCAACCCAATT (targeted gene: BFAR)”, the figure is 0.0174.
For “CGGACCTTAGTGAATATAAAT (targeted gene: OPA1)”, the “shRNA barcode abundance ratio t end/t zero (log2)” value is -0.0398.
Turning to “GGCTTTACTCCGTAACAGATT (targeted gene: RHOA)”, the “shRNA barcode abundance ratio t end/t zero (log2)” value was -2.14.
In the case of “GCCTCACCAGTCCATTATTAT (targeted gene: BIRC6)”, the “shRNA barcode abundance ratio t end/t zero (log2)” value was found to be 0.259.
As for “CCGAACATTAGGAATTGTTTA (targeted gene: ACVR1)”, the “shRNA barcode abundance ratio t end/t zero (log2)” value turned out to be 0.264.
In the case of “GCTGTGAGTTCTGATAGGAAT (targeted gene: XIAP)”, the “shRNA barcode abundance ratio t end/t zero (log2)” value is -0.186.
As for “GGGTAGAAATTGGCTTCATAA (targeted gene: WRN)”, the figure is -0.246; as for “GGCAGGTATTTGACATATTAA (targeted gene: NFKB1)”, 0.217.
